From patent US10973744B2, “Conditioner composition comprising a chelant” (The Procter & Gamble Company, priority 2016, dated 2021)

Experiment: Measurement of copper on hair after shampoo / rinse-off conditioner / leave-on treatment regimen (ICP-OES)
Conditions: after 20 regimen cycles, compared to control conditioning shampoo/control rinse-off conditioner
Description: All testing are performed on colored hair switches (see Method of Measurement of copper on hair below) weighing approximately 4.0 grams and having a length of approximately 6 inches. The hair switches are commercially available from IHIP (International Hair Importers). Three hair switches per shampoo composition are used. An amount of […] of shampoo is spread via a syringe onto separate hair switch. That is, the dosage is 0.10 g of shampoo per g of hair. Each application consists of adding shampoo to the hair, milking for 30 seconds followed by rinsing for 30 seconds. Shampoo is then reapplied (0.1 g/g), milked for 30 seconds and rinsed for 30 seconds. Excess water is squeezed from the hair switches and left to air dry or treated with a rinse-off conditioner and/or a leave-on treatment composition. […]
In several cases during this inventigation, the rinse-off conditioner treatment is followed by hair treatment with a leave-on treatment composition. Specifically, the appropriate quantity of the leave-on treatment composition is uniformely sprayed or spread onto separate hair switches (dosage of 0.10 g of solution per g of hair). […]
Samples of 100 mg of hair were digested overnight with 2 ml of high purity concentrated nitric acid. […] Copper content of the hair switches was determined by inductively coupled plasma atomic spectroscopy (ICP-OES)). For each leg, 3 different samples were analyzed. […]

NCCNCCNCCN [2,3-Triethylenetetramine]
Removal of copper from hair (in words): effective removal of copper from hair
